Test results reported in article PMC10733197, “Utilization of Rosuvastatin and Endogenous Biomarkers in Evaluating the Impact of Ritlecitinib on BCRP, OATP1B1, and OAT3 Transporter Activity” (Pharmaceutical Research, 2023).
Like-named read-outs stand apart in the source and are kept apart here. Blank lines part the entries; values can stand above or below the molecule they belong to.

Experiments:
OAT3 = molecular target: T1, OAT3 (Homo sapiens, UniProt Q8TCC7); conditions: estrone 3-sulfate 0.1 µM; HEK293; existing in vitro data; cited from earlier work
T1 construct: expressed in transfected cells; host or cells: HEK293
T1 sequence (Q8TCC7 1-542): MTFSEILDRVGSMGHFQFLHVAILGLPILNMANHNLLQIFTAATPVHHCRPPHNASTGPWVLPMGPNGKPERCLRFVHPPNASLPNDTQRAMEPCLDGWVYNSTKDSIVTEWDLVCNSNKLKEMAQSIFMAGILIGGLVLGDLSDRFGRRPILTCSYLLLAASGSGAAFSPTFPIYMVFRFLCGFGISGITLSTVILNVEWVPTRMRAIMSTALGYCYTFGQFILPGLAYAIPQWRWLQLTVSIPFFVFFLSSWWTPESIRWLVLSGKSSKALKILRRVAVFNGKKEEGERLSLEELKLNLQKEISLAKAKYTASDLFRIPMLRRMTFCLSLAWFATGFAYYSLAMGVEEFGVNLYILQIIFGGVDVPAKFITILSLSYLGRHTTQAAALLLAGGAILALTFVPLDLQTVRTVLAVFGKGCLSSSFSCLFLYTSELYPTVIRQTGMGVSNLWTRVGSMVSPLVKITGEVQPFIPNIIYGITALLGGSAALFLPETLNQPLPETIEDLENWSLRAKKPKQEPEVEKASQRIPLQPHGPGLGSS

[1] = cited from earlier work
OAT1/3 = conditions: ref 1 (Rodrigues AD 2023), cited from earlier work
OAT1 = molecular target: T2, OAT1 (Homo sapiens, UniProt Q4U2R8); conditions: cited from earlier work
T2 sequence (Q4U2R8 1-563): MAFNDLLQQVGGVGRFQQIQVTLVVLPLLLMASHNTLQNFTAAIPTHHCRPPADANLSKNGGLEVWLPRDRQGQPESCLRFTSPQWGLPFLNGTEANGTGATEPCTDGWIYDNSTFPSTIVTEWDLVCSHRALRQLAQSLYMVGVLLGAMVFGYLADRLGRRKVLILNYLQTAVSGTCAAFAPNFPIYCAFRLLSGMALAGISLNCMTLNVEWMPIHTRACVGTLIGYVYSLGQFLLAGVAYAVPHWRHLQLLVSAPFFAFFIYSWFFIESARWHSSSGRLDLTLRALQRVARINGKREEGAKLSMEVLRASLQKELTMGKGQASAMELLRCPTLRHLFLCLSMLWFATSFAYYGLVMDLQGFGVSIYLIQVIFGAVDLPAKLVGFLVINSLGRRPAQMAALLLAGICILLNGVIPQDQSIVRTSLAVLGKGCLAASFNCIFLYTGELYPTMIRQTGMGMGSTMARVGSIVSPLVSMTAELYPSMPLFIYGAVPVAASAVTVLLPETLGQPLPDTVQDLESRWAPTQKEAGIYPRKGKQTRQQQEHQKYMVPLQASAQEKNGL

OATP2B1 = test system: OATP2B1; parameters: method as in PMID 27737931; conditions: rosuvastatin coadministered with ronacaleret, an OATP2B1 inhibitor; cited from earlier work
clinical = conditions: human, in vivo, 10 mg
Experimental: Blood and urine samples were collected at prespecified timepoints. […] Each participant emptied their bladder just prior to dosing. Plasma rosuvastatin was measured using a validated UPLC-MS/MS assay, in compliance with Pfizer standard operating procedures. Samples were thawed at room temperature and vortexed. […] Samples were then placed in a methanol/ dry ice bath for 5 min. […] Dry residues were reconstituted with 200 μL of reconstitution solution (mobile phase A). After vortexing, all tubes were centrifuged at 3000 rpm for 5 min at 4 °C, and 150 μL of the reconstituted samples were transferred into the deep round well microplates and sealed by aluminum foil at 165 °C. […] Mobile phase A was Milli-Q Type Water/methanol, ammonium acetate 2 mM and mobile phase B was acetonitrile. The monitored ion transitions were m/z 483.3 → 258.2; […] The validated rosuvastatin concentration calibration range was 20 to 25000 pg/mL. Urine rosuvastatin was measured using a validated HPLC-MS/MS assay, in compliance with Pfizer standard operating procedures. […] Mobile phase A was Milli-Q® type water/methanol, ammonium acetate 2 mM and mobile phase B was acetonitrile. The monitored ion transitions were m/z 483.3 → 258.2; […] The validated rosuvastatin concentration calibration range was 5 to 2000 ng/mL. […] Samples below the lower limit of quantitation were set to zero for the PK analysis. Actual sample collection times were used for the PK analysis. Natural log transformed area under the plasma concentration-time profile from time 0 extrapolated to infinity (AUCinf), maximum plasma concentration (Cmax), and apparent renal clearance (CLr) were analyzed using a mixed effect model with treatment as a fixed effect and participant as a random effect (SAS version 9.4; SAS Institute, Cary, NC, USA). […] Rosuvastatin alone was the reference treatment, while the rosuvastatin coadministered with ritlecitinib was the Test treatment.

[2] = parameters: method as in PMID 14693307; conditions: cited from earlier work
[3] = Safety and tolerability in the clinical DDI study
Experimental: This was a Phase 1, 2-period fixed-sequence, multiple-dose, open-label study of the effect of ritlecitinib on the pharmacokinetics and renal clearance of a single, oral dose of rosuvastatin in healthy participants (Fig. 1). The safety and tolerability of rosuvastatin when coadministered with ritlecitinib was also evaluated.
In Period 1 on Day 1, following an overnight fast of at least 10 h, participants received a single oral administration of rosuvastatin 10 mg tablet. Period 1 was immediately followed by Period 2 with no washout. In Period 2 (coadministration), participants received oral ritlecitinib 200 mg once daily (QD) under non-fasting conditions for 7 days. On the morning of Day 8, a single dose of rosuvastatin 10 mg tablet was administered orally within approximately 5 min after administration of a ritlecitinib 200 mg dose under fasting conditions. On Days 9 and 10, participants continued to receive oral ritlecitinib 200 mg QD under non-fasting conditions.

[4] = rosuvastatin 10 mg single dose (without ritlecitinib) or ritlecitinib 200 mg QD, 12 healthy participants

SMILES: CCc1nc(N)nc(N)c1-c1ccc(Cl)cc1 [Pyrimethamine]
IC50 (OAT3): 16 µM
Cmax,u ([1]; inhibitor dose 10 mg): 40 nM
Cmax,u ([1]; inhibitor dose 25 mg): 110 nM
Cmax,u ([1]; inhibitor dose 75 mg): 370 nM
PDA AUC ratio Observed (OAT1/3; inhibitor dose 10 mg): 0.7
PDA AUC ratio Observed (OAT1/3; inhibitor dose 25 mg): 0.6
PDA AUC ratio Observed (OAT1/3; inhibitor dose 75 mg): 0.6
IC50 (OAT1): 224 µM

AUC(0-inf) (clinical): 43.9 ng·h/mL
CL renal (clinical): 218 mL/min
CL/F (clinical): 228.0 (44) L/hr
Cmax (clinical): 4.5 ng/mL
Tmax (clinical): 4.01 h
Vd/F (clinical): 6020 L
half-life (clinical): 19.2 ± 7.02 h
SMILES: CC(C)c1nc(N(C)S(C)(=O)=O)nc(-c2ccc(F)cc2)c1/C=C/[C@@H](O)C[C@@H](O)CC(=O)O [Rosuvastatin, rosuvastatin]
decrease in AUCinf exposure (OATP2B1): ~50%
excreted in urine [2]: ≤ 10%
TEAEs of moderate severity ([3]; back pain, single dose of rosuvastatin 10 mg): 1
number of treatment-emergent adverse events (TEAEs) [3, 4]: 4
participants with TEAEs [3, 4]: 4
TEAEs considered treatment-related by the investigator ([3]; rosuvastatin 10 mg single dose or ritlecitinib 200 mg QD): all of which were considered treatment-related
